For the test, the target named is Type-1 angiotensin II receptor (Homo sapiens) (UniProt P30556). In words: AT1 receptor agonists, beta-arrestin recruitment, SAR follow-up, selectivity assay for APJ agonist project, cell-based, CHO-K1 PathHunter, luminescence (AID 488881). Conditions: CHO-K1 AGTR1 PathHunter beta-arrestin. (Recruitment of arrestin is a read-out of receptor activation apart from second messengers.)

Each structure is given as a SMILES string. The source made the active and inactive calls.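 Rule for the calls: active = mean EC50 below 10 µM; inactive = the rest.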 Some results are limits rather than exact numbers.

Type-1 angiotensin II receptor (Homo sapiens), sequence (P30556 whole entry, looked up): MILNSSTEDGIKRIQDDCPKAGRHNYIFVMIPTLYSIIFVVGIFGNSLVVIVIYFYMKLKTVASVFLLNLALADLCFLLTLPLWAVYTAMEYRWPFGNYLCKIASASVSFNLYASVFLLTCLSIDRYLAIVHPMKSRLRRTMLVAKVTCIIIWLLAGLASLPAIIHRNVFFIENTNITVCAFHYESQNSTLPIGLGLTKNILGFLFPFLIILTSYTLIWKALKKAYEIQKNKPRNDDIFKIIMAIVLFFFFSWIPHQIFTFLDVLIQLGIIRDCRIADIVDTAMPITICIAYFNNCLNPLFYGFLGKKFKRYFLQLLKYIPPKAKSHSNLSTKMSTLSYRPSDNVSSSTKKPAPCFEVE

The EC50 is the concentration giving half of the maximal effect. Regarding `CSc1nc(=O)cc(N)n1-c1ccc(C)cc1`, the EC50 is > 79 µM (inactive).
On to `COc1ccccc1-n1c(SCC(=O)c2ccccc2)nc(O)cc1=O`, for which the EC50 was > 79 µM (inactive).
For `CC1=C/C(=N/OS(=O)(=O)c2ccccc2)C(C)=CC1=O`, the EC50 was > 79 µM (inactive).
As for `CCc1c(O)n(C2CCCCC2)c(=S)[nH]c1=O`, the figure is > 79 µM (inactive); as for `CCc1c(O)nc(SCc2ccccc2)n(C(C)CC)c1=O` (configuration not stated), > 79 µM (inactive); as for `CC1=CC(=NOS(=O)(=O)c2ccccc2)C=C(C)C1=O`, > 79 µM (inactive).
The value for `CCc1c(O)nc(SCc2ccccc2)n(C2CCCCC2)c1=O` was > 79 µM (inactive).
As for `O=S(=O)(Nc1nc(-c2ccccc2)cs1)c1ccc(Br)cc1`, the figure is > 79 µM (inactive); as for `CCc1c(O)nc(SC(C)CC)n(C(C)CC)c1=O` (configuration not stated), > 79 µM (inactive).
As for `CCN1/C(=C/C(=O)c2sc(=S)n(CC)c2O)Sc2ccccc21`, the EC50 was > 79 µM (inactive).
`CC1=CC(=NOS(=O)(=O)c2ccc(C)cc2)C=C(C)C1=O`: the EC50 is > 79 µM (inactive).
The value for `CCCCSc1nc(O)c(CC)c(=O)n1C1CCCCC1` was > 79 µM (inactive); that for `C=CCn1c(SCc2ccccc2)nc(O)c(CC)c1=O` was > 79 µM (inactive).
As for `CN(C)CCSc1nc(O)c(-c2ccccc2)c(=O)n1-c1ccccc1`, the figure is > 79 µM (inactive); as for `CCN1/C(=C\C=C2/SC(=S)N(C)C2=O)Sc2ccccc21`, > 79 µM (inactive).
In the case of `CC1=C(C)C(=NOS(=O)(=O)c2ccc(C)cc2)C=CC1=O`, the EC50 was > 79 µM (inactive).
Regarding `CCCSc1nc(O)c(CC)c(=O)n1C(C)CC` (configuration not stated), the EC50 is > 79 µM (inactive).
For the molecule `C=CCSc1nc(O)c(CC)c(=O)n1-c1ccc(C)cc1`, the EC50 was > 79 µM (inactive).
As for `CCSc1nc(O)c(CC)c(=O)n1C1CCCCC1`, the figure is > 79 µM (inactive).
Turning to `CCCCSc1nnc(NC(=O)CSc2nc3ncccc3[nH]2)s1`, the EC50 was > 79 µM (inactive).
`CC1=CC(=O)C(C(C)C)=C/C1=N/OS(=O)(=O)c1ccccc1`: the EC50 was > 79 µM (inactive).
As to `COc1ccc(S(=O)(=O)O/N=C2\C=C(C(C)C)C(=O)C=C2C)cc1`, the EC50 is > 79 µM (inactive).
The value for `CC1=C/C(=N\OS(=O)(=O)c2ccc(Cl)cc2)C=CC1=O` was > 79 µM (inactive).
For `CCc1c(O)nc(SC)n(C2CCCCC2)c1=O`, the EC50 is > 79 µM (inactive).
As to `CC1=C/C(=N/OS(=O)(=O)c2ccc(C)cc2)C=CC1=O`, the EC50 was > 79 µM (inactive).
As to `C=CCSc1nc(O)c(CC)c(=O)n1C(C)CC` (configuration not stated), the EC50 is > 79 µM (inactive).
As to `CCSc1nc(O)c(CC)c(=O)n1C(C)CC` (configuration not stated), the EC50 is > 79 µM (inactive).
On to `CC1=CC(=O)C(C(C)C)=CC1=NOS(=O)(=O)c1ccccc1`, for which the EC50 is > 79 µM (inactive).
The value for `CC1=C/C(=N/OS(=O)(=O)c2ccc(C)cc2)C(C(C)C)=CC1=O` was > 79 µM (inactive); that for `CCc1c(O)nc(SC)n(C(C)CC)c1=O` (configuration not stated) was > 79 µM (inactive).
As to `Cc1ccc(S(=O)(=O)Nc2nc(-c3ccccc3)cs2)cc1`, the EC50 was > 79 µM (inactive).
With `Cc1cc(C)n2nc3nc(N4CCOCC4)nc(-c4ccccc4)c3c2n1`, the EC50 is > 79 µM (inactive).
For `CC1=CC(=O)C=C/C1=N\OS(=O)(=O)c1ccc(C)cc1`, the EC50 is > 79 µM (inactive).
Consider `Cc1ccc(S(=O)(=O)ON=C2C=CC(=O)C=C2)cc1`, for which the EC50 was > 79 µM (inactive).
On to `CC1=CC(=NOS(=O)(=O)c2ccccc2)C(C(C)C)=CC1=O`, for which the EC50 is > 79 µM (inactive).
Regarding `C=CCSc1nc(O)c(CC)c(=O)n1C1CCCCC1`, the EC50 was > 79 µM (inactive).
As to `CC1=CC(=NOS(=O)(=O)c2ccc(Cl)cc2)C=C(C)C1=O`, the EC50 was > 79 µM (inactive).
Consider `CC1=CC(=NOS(=O)(=O)c2ccccc2)C=CC1=O`, for which the EC50 is > 79 µM (inactive).
As for `O=S(=O)(Nc1nc(-c2ccccc2)cs1)c1ccc(Cl)cc1`, the figure is > 79 µM (inactive); as for `CC1=CC(=O)C=C(C)C1=NOS(=O)(=O)c1ccccc1`, > 79 µM (inactive); as for `CC1=C/C(=N\OS(=O)(=O)c2ccc(C)cc2)C(C)=CC1=O`, > 79 µM (inactive).
The value for `COc1ccc(S(=O)(=O)ON=C2C=C(C)C(=O)C(C)=C2)cc1` was > 79 µM (inactive).

(Values after PubChem BioAssay AID488881 (Sanford-Burnham Center for Chemical Genomics, 2010).)
